Laboratory results from US9249129B2, “Morpholino substituted urea derivatives as mTOR inhibitors” (CELLZOME LIMITED, priority 2010, dated 2016).

Tests used:
Test in all cases: kinobeads assay with mass spectrometry detection of kinases (kinase selectivity profile)
Format in all cases: binding
[1] = target: T1, kinases (kinome) (Homo sapiens, UniProt P53671); conditions: LIMK2 (TKL), IPI00025698
T1 construct: determined in kinobeads assays with mass spectrometry detection of kinases as described previously; endogenous in cells; host or cells: cell lysate
Text: (§1) The protein kinase complement of the human genome (the kinome) was described previously (Manning et al., 2002. Science 298(5600):1912-1934). Sequence accession numbers are defined by the International Protein Index (IPI) (Kersey et al., 2004. Proteomics 4(7):1985-1988).

[2] = target: T2, kinases (kinome) (Homo sapiens, UniProt Q8NI60); conditions: ADCK3 (Atypical), IPI00176469
T2 construct: determined in kinobeads assays with mass spectrometry detection of kinases as described previously; endogenous in cells; host or cells: cell lysate
Text: as §1

[3] = target: T3, kinases (kinome) (Homo sapiens, UniProt P24941); conditions: CDK2 (CMGC), IPI00031681
T3 construct: determined in kinobeads assays with mass spectrometry detection of kinases as described previously; endogenous in cells; host or cells: cell lysate
Text: as §1

[4] = target: T4, kinases (kinome) (Homo sapiens, UniProt P51955); conditions: NEK2 (Other), IPI00021331
T4 construct: determined in kinobeads assays with mass spectrometry detection of kinases as described previously; endogenous in cells; host or cells: cell lysate
T4 sequence (P51955 1-445): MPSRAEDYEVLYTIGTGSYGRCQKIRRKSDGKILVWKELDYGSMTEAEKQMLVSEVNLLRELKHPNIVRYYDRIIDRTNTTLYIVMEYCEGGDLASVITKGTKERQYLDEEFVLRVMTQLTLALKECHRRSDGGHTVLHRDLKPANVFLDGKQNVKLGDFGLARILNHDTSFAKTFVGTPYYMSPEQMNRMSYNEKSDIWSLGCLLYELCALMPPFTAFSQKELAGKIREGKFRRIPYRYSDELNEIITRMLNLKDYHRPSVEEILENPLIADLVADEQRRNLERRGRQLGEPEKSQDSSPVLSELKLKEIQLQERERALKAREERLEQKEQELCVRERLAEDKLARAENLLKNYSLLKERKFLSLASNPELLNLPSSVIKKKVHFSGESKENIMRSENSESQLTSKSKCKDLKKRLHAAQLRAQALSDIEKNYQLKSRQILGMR
Text: as §1

[5] = target: T5, kinases (kinome) (Homo sapiens, UniProt Q8TD19); conditions: NEK9 (Other), IPI00301609
T5 construct: determined in kinobeads assays with mass spectrometry detection of kinases as described previously; endogenous in cells; host or cells: cell lysate
T5 sequence (Q8TD19 1-979): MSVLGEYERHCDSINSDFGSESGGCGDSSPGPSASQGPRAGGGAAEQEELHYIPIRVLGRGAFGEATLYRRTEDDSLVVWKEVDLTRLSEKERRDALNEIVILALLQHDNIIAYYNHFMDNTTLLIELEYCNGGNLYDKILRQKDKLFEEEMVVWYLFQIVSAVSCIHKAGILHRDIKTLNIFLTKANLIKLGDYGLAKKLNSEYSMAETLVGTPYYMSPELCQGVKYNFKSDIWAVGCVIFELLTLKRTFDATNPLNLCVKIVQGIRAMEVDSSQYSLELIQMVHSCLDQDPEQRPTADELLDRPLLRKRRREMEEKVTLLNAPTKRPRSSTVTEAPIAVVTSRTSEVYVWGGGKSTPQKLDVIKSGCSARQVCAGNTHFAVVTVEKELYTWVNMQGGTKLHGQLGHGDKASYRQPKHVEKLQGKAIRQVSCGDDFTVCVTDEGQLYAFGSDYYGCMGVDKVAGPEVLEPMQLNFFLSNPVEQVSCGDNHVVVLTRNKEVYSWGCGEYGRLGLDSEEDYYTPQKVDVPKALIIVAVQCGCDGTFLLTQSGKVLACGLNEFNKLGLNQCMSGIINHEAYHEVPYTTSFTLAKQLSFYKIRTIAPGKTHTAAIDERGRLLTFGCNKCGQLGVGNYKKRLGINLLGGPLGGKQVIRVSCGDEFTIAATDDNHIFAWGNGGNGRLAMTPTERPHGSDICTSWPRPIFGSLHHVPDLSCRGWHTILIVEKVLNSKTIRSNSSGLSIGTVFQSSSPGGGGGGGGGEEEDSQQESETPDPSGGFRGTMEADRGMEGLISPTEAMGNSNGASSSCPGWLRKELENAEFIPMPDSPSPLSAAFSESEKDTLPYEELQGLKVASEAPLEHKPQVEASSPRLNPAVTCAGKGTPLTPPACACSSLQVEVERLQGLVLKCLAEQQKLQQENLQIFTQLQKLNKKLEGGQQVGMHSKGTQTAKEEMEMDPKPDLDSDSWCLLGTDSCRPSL
Text: as §1

[6] = target: T6, kinases (kinome) (Homo sapiens, UniProt P49841); conditions: GSK3B (CMGC), IPI00216190
T6 construct: determined in kinobeads assays with mass spectrometry detection of kinases as described previously; endogenous in cells; host or cells: cell lysate
Text: as §1

[7] = target: T7, kinases (kinome) (Homo sapiens, UniProt Q08881); conditions: ITK (TK), IPI00004566
T7 construct: determined in kinobeads assays with mass spectrometry detection of kinases as described previously; endogenous in cells; host or cells: cell lysate
T7 sequence (Q08881 1-620): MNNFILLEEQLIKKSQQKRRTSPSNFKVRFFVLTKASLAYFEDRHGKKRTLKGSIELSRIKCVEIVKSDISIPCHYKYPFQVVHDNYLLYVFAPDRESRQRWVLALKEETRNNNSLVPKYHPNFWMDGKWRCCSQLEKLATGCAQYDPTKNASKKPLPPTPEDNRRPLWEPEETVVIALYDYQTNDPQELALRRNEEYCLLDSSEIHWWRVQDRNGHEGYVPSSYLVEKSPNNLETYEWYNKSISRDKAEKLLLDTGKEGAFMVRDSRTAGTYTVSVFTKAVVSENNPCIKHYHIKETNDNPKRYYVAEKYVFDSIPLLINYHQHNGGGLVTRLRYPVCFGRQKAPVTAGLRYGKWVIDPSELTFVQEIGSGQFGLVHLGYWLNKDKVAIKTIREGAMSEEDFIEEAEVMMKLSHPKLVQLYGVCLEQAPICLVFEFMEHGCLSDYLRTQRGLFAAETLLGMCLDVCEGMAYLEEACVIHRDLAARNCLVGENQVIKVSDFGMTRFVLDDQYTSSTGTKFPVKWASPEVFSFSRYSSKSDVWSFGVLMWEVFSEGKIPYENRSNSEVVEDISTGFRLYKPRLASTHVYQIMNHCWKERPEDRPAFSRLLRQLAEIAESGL
Text: as §1

Measured: IC50

T6 sequence (P49841 whole entry): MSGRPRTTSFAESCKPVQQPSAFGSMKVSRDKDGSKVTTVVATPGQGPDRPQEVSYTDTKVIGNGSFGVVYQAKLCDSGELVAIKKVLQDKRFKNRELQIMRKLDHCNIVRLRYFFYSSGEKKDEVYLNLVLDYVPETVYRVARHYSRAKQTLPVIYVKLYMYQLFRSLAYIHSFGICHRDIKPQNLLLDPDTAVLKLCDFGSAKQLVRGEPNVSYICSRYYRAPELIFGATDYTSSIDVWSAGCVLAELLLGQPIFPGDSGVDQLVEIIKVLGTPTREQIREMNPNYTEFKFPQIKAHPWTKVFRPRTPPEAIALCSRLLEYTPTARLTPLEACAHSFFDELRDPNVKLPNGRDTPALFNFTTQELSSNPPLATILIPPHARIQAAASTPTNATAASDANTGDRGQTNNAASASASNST
T2 sequence (Q8NI60 163-647): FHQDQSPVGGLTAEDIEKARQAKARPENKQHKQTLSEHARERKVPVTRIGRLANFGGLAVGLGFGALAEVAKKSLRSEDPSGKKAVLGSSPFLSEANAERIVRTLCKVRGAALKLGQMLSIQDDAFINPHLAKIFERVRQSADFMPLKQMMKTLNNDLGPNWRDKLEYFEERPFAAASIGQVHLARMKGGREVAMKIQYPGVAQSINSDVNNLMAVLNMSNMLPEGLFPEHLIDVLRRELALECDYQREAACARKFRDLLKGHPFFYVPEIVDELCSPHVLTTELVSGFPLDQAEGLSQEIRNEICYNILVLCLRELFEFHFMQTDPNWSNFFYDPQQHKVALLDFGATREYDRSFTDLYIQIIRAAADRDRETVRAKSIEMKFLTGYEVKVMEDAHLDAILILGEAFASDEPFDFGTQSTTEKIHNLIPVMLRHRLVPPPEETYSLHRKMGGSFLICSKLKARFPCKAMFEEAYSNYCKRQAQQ
T1 sequence (P53671 whole entry): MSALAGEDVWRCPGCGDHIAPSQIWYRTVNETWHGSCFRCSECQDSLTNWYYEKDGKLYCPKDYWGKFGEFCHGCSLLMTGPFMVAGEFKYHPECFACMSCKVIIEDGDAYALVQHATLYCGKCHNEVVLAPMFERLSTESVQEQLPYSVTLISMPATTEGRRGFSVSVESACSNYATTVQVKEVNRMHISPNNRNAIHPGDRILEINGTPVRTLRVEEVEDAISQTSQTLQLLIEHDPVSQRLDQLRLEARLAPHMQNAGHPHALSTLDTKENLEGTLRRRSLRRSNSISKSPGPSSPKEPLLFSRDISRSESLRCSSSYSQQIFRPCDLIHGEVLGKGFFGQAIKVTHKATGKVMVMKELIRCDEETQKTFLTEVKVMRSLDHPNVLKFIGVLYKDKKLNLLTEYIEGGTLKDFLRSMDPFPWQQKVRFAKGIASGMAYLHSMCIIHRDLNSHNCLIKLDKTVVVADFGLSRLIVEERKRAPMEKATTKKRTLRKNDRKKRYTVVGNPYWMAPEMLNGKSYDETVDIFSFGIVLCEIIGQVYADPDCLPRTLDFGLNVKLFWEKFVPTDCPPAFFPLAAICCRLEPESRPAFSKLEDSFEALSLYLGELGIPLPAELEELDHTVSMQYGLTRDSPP

C[C@H]1COCCN1c1nc(-c2ccc(NC(=O)NC3CC3)cc2)cc(-c2cccnc2S(C)(=O)=O)n1 [Example 46, (S)-1-cyclopropyl-3-(4-(2-(3-methylmorpholino)-6-(2-(methylsulfonyl)pyridin-3-yl)pyrimidin-4-yl)phenyl)urea]
> 10 µM: all assays above

C[C@H]1COCCN1c1nc(-c2ccc(NC(=O)NC3CC3)cc2)cc(-c2ccccc2S(C)(=O)=O)n1 [Example 4, (S)-1-cyclopropyl-3-(4-(2-(3-methylmorpholino)-6-(2-(methylsulfonyl)phenyl)pyrimidin-4-yl)phenyl)urea]
> 10 µM: all assays above

C[C@H]1COCCN1c1nc(-c2ccc(NC(=O)N[C@H]3CCC[C@@H]3O)cc2)cc(-c2cc(F)ccc2S(C)(=O)=O)n1 [Example 76, 1-(4-(6-(5-fluoro-2-(methylsulfonyl)phenyl)-2-((S)-3-methylmorpholino)pyrimidin-4-yl)phenyl)-3-((1S,2S)-2-hydroxycyclopentyl)urea]
> 10 µM: all assays above

CCNC(=O)Nc1ccc(-c2cc(-c3ccccc3C#N)nc(N3CCOC[C@@H]3C)n2)cc1 [Example 8, (S)-1-(4-(6-(2-cyanophenyl)-2-(3-methylmorpholino)pyrimidin-4-yl)phenyl)-3-ethylurea]
> 10 µM: all assays above

C[C@H]1COCCN1c1cc(-c2ccccc2S(C)(=O)=O)nc(-c2ccc(NC(=O)NC3CC3)cc2)n1 [Example 6, (S)-1-cyclopropyl-3-(4-(4-(3-methylmorpholino)-6-(2-(methylsulfonyl)phenyl)pyrimidin-2-yl)phenyl)urea]
> 10 µM: all assays above

C[C@H]1COCCN1c1cc(-c2ccccn2)nc(-c2ccc(NC(=O)NCCO)cc2)n1 [Example 43, (S)-1-(2-hydroxyethyl)-3-(4-(4-(3-methylmorpholino)-6-(pyridin-2-yl)pyrimidin-2-yl)phenyl)urea]
> 10 µM: all assays above

C[C@H]1COCCN1c1nc(-c2ccc(NC(=O)NC3CC3)cc2)cc(-c2cc(F)ccc2S(C)(=O)=O)n1 [Example 40, (S)-1-cyclopropyl-3-(4-(6-(5-fluoro-2-(methylsulfonyl)phenyl)-2-(3-methylmorpholino)pyrimidin-4-yl)phenyl)urea]
> 10 µM: all assays above
